Measured values as given in ChEMBL document CHEMBL5500350, “Advances in TRPV6 inhibitors for tumors by targeted therapies: Macromolecular proteins, synthetic small molecule compounds, and natural compounds” (Eur J Med Chem, 2024).

Experiments:
[1] = biological target: T1, Transient receptor potential cation channel subfamily V member 6 (Homo sapiens, UniProt Q9H1D0); experiment: Inhibition of TRPV6 (unknown origin) transfected in HEK293 cells assessed as reduction in TRPV6-induced Cd2+ influx
T1 sequence (Q9H1D0 whole entry): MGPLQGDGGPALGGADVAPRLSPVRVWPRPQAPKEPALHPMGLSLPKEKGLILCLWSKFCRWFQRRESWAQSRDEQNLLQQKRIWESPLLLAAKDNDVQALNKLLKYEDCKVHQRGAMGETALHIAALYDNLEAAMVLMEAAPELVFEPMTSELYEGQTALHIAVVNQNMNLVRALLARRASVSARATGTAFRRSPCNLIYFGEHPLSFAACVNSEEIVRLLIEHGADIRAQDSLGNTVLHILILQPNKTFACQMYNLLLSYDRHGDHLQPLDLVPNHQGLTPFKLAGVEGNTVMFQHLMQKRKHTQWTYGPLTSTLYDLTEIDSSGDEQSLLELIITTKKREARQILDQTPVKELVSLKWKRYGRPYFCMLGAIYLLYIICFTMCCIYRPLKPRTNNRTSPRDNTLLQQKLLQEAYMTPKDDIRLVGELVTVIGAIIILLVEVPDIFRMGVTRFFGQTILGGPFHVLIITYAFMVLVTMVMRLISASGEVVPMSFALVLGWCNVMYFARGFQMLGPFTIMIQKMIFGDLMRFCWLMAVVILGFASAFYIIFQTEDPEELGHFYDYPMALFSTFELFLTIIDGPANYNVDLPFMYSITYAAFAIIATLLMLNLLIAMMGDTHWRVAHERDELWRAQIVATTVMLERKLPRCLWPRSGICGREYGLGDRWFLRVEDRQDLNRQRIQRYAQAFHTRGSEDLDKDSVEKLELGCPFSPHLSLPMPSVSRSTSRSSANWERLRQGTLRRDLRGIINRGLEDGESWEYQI

LNCaP = experiment: Antiproliferative activity against human LNCaP cells assessed as reduction in cell viability incubated for 72 hrs by XTT assay
T47D = experiment: Antiproliferative activity against human T47D cells assessed as reduction in cell viability incubated for 72 hrs by XTT assay
[2] = biological target: T1, Transient receptor potential cation channel subfamily V member 6; experiment: Inhibition of TRPV6 (unknown origin)
[3] = biological target: T1, Transient receptor potential cation channel subfamily V member 6; experiment: Inhibition of TRPV6 (unknown origin) expressed in Sf9 cells

SMILES	IC50 [1]	IC50 (LNCaP)	IC50 (T47D)	further results
c1ccc(C2CCC(N3CCN(Cc4ccco4)CC3)CC2)cc1 (configuration not stated)	25 µM			
CN(C)c1ccc(CCN2CCC[C@@H]2COC(c2ccccc2)c2ccc(Cl)cc2)cc1 (some centres not stated)		0.31 µM	44.5 µM	
COc1ccc(CCN2CCC[C@@H]2COCc2ccc(Cl)cc2)cc1		0.44 µM	38.8 µM	IC50 [2]: 0.44 µM
COc1cc(Br)ccc1CN1CCN(C2CCC(c3ccccc3)CC2)CC1 (configuration not stated)	26 µM			
Fc1ccc(CCNCc2ccccc2OCc2ccc(F)cc2)cc1	15 µM			
COc1ccc(CCN2CCC[C@@H]2COC(c2ccccc2)c2ccccc2)cc1		61 µM	198 µM	
COc1ccc(CCN2CCC[C@@H]2COC(c2ccccc2)c2ccc(Cl)cc2)cc1 (some centres not stated)		50 µM	220 µM	
c1ccc(COc2ccccc2CNC23CC4CC(CC(C4)C2)C3)cc1	21 µM			
CCCc1cc(O)c2c(c1)OC(C)(C)[C@@H]1C=CC(C)=C[C@@H]21				IC50 [3]: 9.4 µM
c1ccc(Oc2cccc(CN3CCN(Cc4cccnc4)CC3)c2)cc1	17 µM			
CN(C)c1ccc(CCN2CCC[C@@H]2CO)cc1		1 µM	49.1 µM	
